Measured values: patent publication US12306176B2, “Microfluidic bi-directional migration assay” (Ohio State Innovation Foundation, priority 2017, dated 2025)

Tests used:
EGFR = assay: Western blot of EGFR phosphorylation (Tyr-1068); type: cell-based, human; details: EGF 25 ng/mL, absence of iEFs, 12 hours
Procedure: For these experiments, 1×10^6 cells/well were plated in 6-well plates in growth media for 12 hours followed by migration media for another 12 hours. Fresh migration media was added to the top three wells in each plate (1, 2, 3) while EGF (25 ng/mL) and supplemental migration media were added to the bottom three wells (4, 5, 6). One of the cell-containing 6-well plates was then treated with iEFs for 12 hours. Immediately after treatment, the plates were placed on ice and each well was then washed three times with 1× tris-buffered saline (TBS, Corning Inc.) solution. TBS was aspirated out and 1 mL ice-cold radioimmunoprecipitation assay (RIPA) buffer, supplemented with a protease inhibitor and a phosphatase inhibitor, was added to each well. Cells were scraped out using a cold plastic cell scraper and the cell suspension was transferred into a pre-cooled microcentrifuge tube. The cell suspension was then spun at 16000 g for 20 minutes in a 4° C. precooled centrifuge. The centrifuge tubes were placed on ice and the supernatants were transferred to fresh tubes and kept on ice. The pellet at the bottom of each microcentrifuge tube was discarded. Protein in each tube was estimated against a standard bovine serum albumin (BSA) solution (1.42 mg/mL) using the DCTM Protein Assay Kit II (Bio-Rad, 500-0112). […]

MDA-MB-231 cells = assay: F-actin polarization ratio in the MBDM assay; type: cell-based, human; details: EGF gradient, absence of iEFs (untreated 0.34)
Procedure: This section reports on the effects of iEFs on the distribution of F-actin in cells migrating along the microtracks of the MBDM assay. To quantify the distribution of F-Actin, a quantity referred to herein as the polarization ratio (PR) was introduced, which has values between 0 and 1.
Cells in the devices were fixed in 3.7 (wt/wt) paraformaldehyde solution for 30 minutes. They were subsequently washed with 1×PBS three times. For F-actin labeling, we blocked the cells for 60 minutes in blocking buffer (0.1% Triton-X and 5% donkey serum in 1×PBS). Cells were then treated with Alexa Fluoro® 488-conjugated or 555-conjugated phalloidin for 60 minutes (1:40, ThermoFisher), again followed by a 1×PBS wash (three times, 10 minutes each). […]
Actin immunofluorescence images were acquired using a Nikon TE200 epifluorescence microscope (Nikon Instruments Inc.) under a 20× objective. The immunofluorescence images were quantified using custom MATLAB scripts. The custom MATLAB script calculated the geometric center for an individual cell, i.e. the arithmetic mean of the locations of all pixels comprising the cell area. Then the distance from this geometric center and angle (0°≤θ≤360°) of every pixel relative to a horizontal axis (θ=0°) was calculated. […] A moment of intensity is calculated for individual pixels and this value is summed for all the pixels in every individual sector. […]

## epidermal growth factor [EGF]
EGFR
  EGFR phosphorylation: resulted in EGFR phosphorylation
MDA-MB-231 cells
  center of the F-actin polarization ratio (PR) distribution: 0.62
